Source: US10266526B2, “Substituted 1,2,3-triazoles as SMYD inhibitors for treating cancer” (EPIZYME, INC., priority 2014, dated 2019)

Target: SMYD2 (Homo sapiens (Human), UniProt Q9NRG4)
Assay: SMYD2 biochemical assay (SMYD2 enzyme assay on peptide substrate, 3H-SAM Flashplate)
Conditions: read-out: SMYD2 Biochem IC50; IC50 values are an average of n = 1 to n = 50

Chain of SMYD2 (Q9NRG4 whole entry): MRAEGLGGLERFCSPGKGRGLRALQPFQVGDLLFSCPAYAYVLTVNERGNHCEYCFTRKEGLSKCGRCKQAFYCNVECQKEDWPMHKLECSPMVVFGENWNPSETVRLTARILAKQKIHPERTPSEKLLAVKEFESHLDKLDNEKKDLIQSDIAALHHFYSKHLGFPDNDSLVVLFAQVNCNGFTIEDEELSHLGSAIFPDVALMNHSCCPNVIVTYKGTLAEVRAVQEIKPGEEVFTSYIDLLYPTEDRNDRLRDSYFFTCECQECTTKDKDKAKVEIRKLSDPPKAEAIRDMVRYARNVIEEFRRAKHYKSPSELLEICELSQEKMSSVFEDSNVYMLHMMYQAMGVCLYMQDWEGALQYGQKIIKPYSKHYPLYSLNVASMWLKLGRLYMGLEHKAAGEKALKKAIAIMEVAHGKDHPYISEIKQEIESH

Row | SMILES | IC50 [µM]
1 | O=C(NC1CN(C2(c3ccccc3)COC2)C1)c1cn(C2CC2)nn1 [compound 781, 1-cyclopropyl-N-[1-(3-phenyloxetan-3-yl)azetidin-3-yl]-1H-1,2,3-triazole-4-carboxamide] | > 50
2 | O=C(NC1CN(Cc2cn(CCc3ccccc3)cn2)C1)c1cn(C2CC2)nn1 [compound 782, 1-cyclopropyl-N-(1-{[1-(2-phenylethyl)-1H-imidazol-4-yl]methyl}azetidin-3-yl)-1H-1,2,3-triazole-4-carboxamide] | 2.62
3 | CC(=O)Nc1cccc(C(C)N2CC(NC(=O)c3cn(C4CC4)nn3)C2)c1 (stereo not drawn) [compound 783, 1-cyclopropyl-N-{1-[1-(3-acetamidophenyl)ethyl]azetidin-3-yl}-1H-1,2,3-triazole-4-carboxamide] | 3.14
4 | Cn1cnc(CN2CC(NC(=O)c3cn(C4CC4)nn3)C2)c1Cl [compound 784, N-{1-[(5-chloro-1-methyl-1H-imidazol-4-yl)methyl]azetidin-3-yl}-1-cyclopropyl-1H-1,2,3-triazole-4-carboxamide] | 21
5 | CC(c1c[nH]cn1)N1CC(NC(=O)c2cn(C3CC3)nn2)C1 (stereo not drawn) [compound 785, 1-cyclopropyl-N-{1-[1-(1H-imidazol-4-yl)ethyl]azetidin-3-yl}-1H-1,2,3-triazole-4-carboxamide] | 2.59
6 | CCC(c1ccccn1)N1CC(NC(=O)c2cn(C3CC3)nn2)C1 (stereo not drawn) [compound 791, 1-cyclopropyl-N-{1-[1-(pyridin-2-yl)propyl]azetidin-3-yl}-1H-1,2,3-triazole-4-carboxamide] | 2.47
7 | COc1ccc2c(c1)CCCC2N1CC(NC(=O)c2cn(C3CC3)nn2)C1 (stereo not drawn) [compound 793, 1-cyclopropyl-N-[1-(6-methoxy-1,2,3,4-tetrahydronaphthalen-1-yl)azetidin-3-yl]-1H-1,2,3-triazole-4-carboxamide] | 9.92
8 | COc1c(CN)cccc1CN1CC(NC(=O)c2cn(C3CC3)nn2)C1 [compound 794, N-(1-{[3-(aminomethyl)-2-methoxyphenyl]methyl}azetidin-3-yl)-1-cyclopropyl-1H-1,2,3-triazole-4-carboxamide] | 32.3
9 | O=C(NC1CN(Cc2cn(Cc3ccccc3)cn2)C1)c1cn(C2CC2)nn1 [compound 795, N-{1-[(1-benzyl-1H-imidazol-4-yl)methyl]azetidin-3-yl}-1-cyclopropyl-1H-1,2,3-triazole-4-carboxamide] | 7.15
10 | CC(C)N1CC(NC(=O)c2cn(C3CC3)nn2)C1(C)C (stereo not drawn) [compound 799, 1-cyclopropyl-N-[2,2-dimethyl-1-(propan-2-yl)azetidin-3-yl]-1H-1,2,3-triazole-4-carboxamide] | 9.6
11 | CC(C)N1CCCC(NC(=O)c2cn(C3CC3)nn2)C1 (stereo not drawn) [compound 808, 1-cyclopropyl-N-[1-(propan-2-yl)piperidin-3-yl]-1H-1,2,3-triazole-4-carboxamide] | 19.8
12 | O=C(NC1CN(Cc2cncn2Cc2ccccc2)C1)c1cn(C2CC2)nn1 [compound 809, N-{1-[(1-benzyl-1H-imidazol-5-yl)methyl]azetidin-3-yl}-1-cyclopropyl-1H-1,2,3-triazole-4-carboxamide] | > 50
13 | O=C(NC1CN(C(CO)c2ccc(F)cc2)C1)c1cn(C2CC2)nn1 (stereo not drawn) [compound 813, 1-cyclopropyl-N-{1-[1-(4-fluorophenyl)-2-hydroxyethyl]azetidin-3-yl}-1H-1,2,3-triazole-4-carboxamide] | 15.2
14 | CC(C)N1CCCC(NC(=O)c2cc(C3CC3)cnn2)C1 (stereo not drawn) [compound 815, 5-cyclopropyl-N-[1-(propan-2-yl)piperidin-3-yl]pyridazine-3-carboxamide] | 18.7
15 | O=C(NC1CN(C(c2ccc(OCc3ccccc3)cc2)C(F)(F)F)C1)c1cn(C2CC2)nn1 (stereo not drawn) [compound 816, N-(1-{1-[4-(benzyloxy)phenyl]-2,2,2-trifluoroethyl}azetidin-3-yl)-1-cyclopropyl-1H-1,2,3-triazole-4-carboxamide] | > 50
16 | COCCCOc1ccc(CN2CC(NC(=O)c3cn(C4CC4)nn3)C2)cc1 [compound 818, 1-cyclopropyl-N-(1-{[4-(3-methoxypropoxy)phenyl]methyl}azetidin-3-yl)-1H-1,2,3-triazole-4-carboxamide] | 3
17 | CNC1CCCC(C(=O)Nc2cc(O)c3c(c2)OCC(=O)N3)C1 (stereo not drawn) [compound 820, N-(5-hydroxy-3-oxo-3,4-dihydro-2H-1,4-benzoxazin-7-yl)-3-(methylamino)cyclohexane-1-carboxamide] | > 50
18 | O=C(NC1CN(Cc2ccc(OCCCO)cc2)C1)c1cn(C2CC2)nn1 [compound 823, 1-cyclopropyl-N-(1-{[4-(3-hydroxypropoxy)phenyl]methyl}azetidin-3-yl)-1H-1,2,3-triazole-4-carboxamide] | 3.22

These reach a lower IC50. Values come first.

Row | IC50 [µM] | SMILES
19 | 1.7 | O=C(NC1CN(C(c2ccc(F)cc2)C2CC2)C1)c1cn(C2CC2)nn1 (stereo not drawn) [compound 786, 1-cyclopropyl-N-{1-[cyclopropyl(4-fluorophenyl)methyl]azetidin-3-yl}-1H-1,2,3-triazole-4-carboxamide]
20 | 1.43 | CC(C)C(c1ccccc1)N1CC(NC(=O)c2cn(C3CC3)nn2)C1 (stereo not drawn) [compound 787, 1-cyclopropyl-N-[1-(2-methyl-1-phenylpropyl)azetidin-3-yl]-1H-1,2,3-triazole-4-carboxamide]
21 | 0.0164 | O=C(NC1CN(Cc2cnn(Cc3ccccc3)c2)C1)c1cn(C2CC2)nn1 [compound 792, N-{1-[(1-benzyl-1H-pyrazol-4-yl)methyl]azetidin-3-yl}-1-cyclopropyl-1H-1,2,3-triazole-4-carboxamide]
22 | 0.421 | CC(c1ccccc1OCc1ccccc1)N1CC(NC(=O)c2cn(C3CC3)nn2)C1 (stereo not drawn) [compound 796, N-(1-{1-[2-(benzyloxy)phenyl]ethyl}azetidin-3-yl)-1-cyclopropyl-1H-1,2,3-triazole-4-carboxamide]
23 | 1.57 | CC(c1ccc(-n2ccnc2)cc1)N1CC(NC(=O)c2cn(C3CC3)nn2)C1 (stereo not drawn) [compound 797, 1-cyclopropyl-N-(1-{1-[4-(1H-imidazol-1-yl)phenyl]ethyl}azetidin-3-yl)-1H-1,2,3-triazole-4-carboxamide]
24 | 0.425 | CCC(c1ccccc1F)N1CC(NC(=O)c2cn(C3CC3)nn2)C1 (stereo not drawn) [compound 798, 1-cyclopropyl-N-{1-[1-(2-fluorophenyl)propyl]azetidin-3-yl}-1H-1,2,3-triazole-4-carboxamide]
25 | 0.965 | COc1cc(OCc2ccccc2)ccc1C(C)N1CC(NC(=O)c2cn(C3CC3)nn2)C1 (stereo not drawn) [compound 800, N-(1-{1-[4-(benzyloxy)-2-methoxyphenyl]ethyl}azetidin-3-yl)-1-cyclopropyl-1H-1,2,3-triazole-4-carboxamide]
26 | 1.06 | COc1ccc(C(C)N2CC(NC(=O)c3cn(C4CC4)nn3)C2)c(OC)c1 (stereo not drawn) [compound 801, 1-cyclopropyl-N-{1-[1-(2,4-dimethoxyphenyl)ethyl]azetidin-3-yl}-1H-1,2,3-triazole-4-carboxamide]
27 | 0.0834 | O=C(NC1CN(Cc2ccc(OCc3ccccc3)cc2)C1)c1cn(C2CC2)nn1 [compound 802, N-(1-{[4-(benzyloxy)phenyl]methyl}azetidin-3-yl)-1-cyclopropyl-1H-1,2,3-triazole-4-carboxamide]
28 | 0.0694 | COc1cccc(C(C)N2CC(NC(=O)c3cn(C4CC4)nn3)C2)c1Cl (stereo not drawn) [compound 803, N-{1-[1-(2-chloro-3-methoxyphenyl)ethyl]azetidin-3-yl}-1-cyclopropyl-1H-1,2,3-triazole-4-carboxamide]
29 | 0.97 | O=C(NC1CN(Cc2cnn(CCc3ccccc3)c2)C1)c1cn(C2CC2)nn1 [compound 806, 1-cyclopropyl-N-(1-{[1-(2-phenylethyl)-1H-pyrazol-4-yl]methyl}azetidin-3-yl)-1H-1,2,3-triazole-4-carboxamide]
30 | 0.528 | O=C(NC1CN(Cc2cnn(CCc3ccccc3)c2)C1)c1cc(C2CC2)cnn1 [compound 807, 5-cyclopropyl-N-(1-{[1-(2-phenylethyl)-1H-pyrazol-4-yl]methyl}azetidin-3-yl)pyridazine-3-carboxamide]
31 | 1.22 | Cn1cc(CN2CC(NC(=O)c3cn(C4CC4)nn3)C2)c(Cl)n1 [compound 811, N-{1-[(3-chloro-1-methyl-1H-pyrazol-4-yl)methyl]azetidin-3-yl}-1-cyclopropyl-1H-1,2,3-triazole-4-carboxamide]
32 | 0.598 | CCN1CC(NC(=O)c2cc(C3CC3)cnn2)C1 [compound 814, 5-cyclopropyl-N-(1-ethylazetidin-3-yl)pyridazine-3-carboxamide]
33 | 0.102 | CC(c1ccc(OCc2ccccc2)cc1Cl)N1CC(NC(=O)c2cn(C3CC3)nn2)C1 (stereo not drawn) [compound 817, N-(1-{1-[4-(benzyloxy)-2-chlorophenyl]ethyl}azetidin-3-yl)-1-cyclopropyl-1H-1,2,3-triazole-4-carboxamide]
34 | 0.785 | COc1ccc(C(C)N2CC(NC(=O)c3cn(C4CC4)nn3)C2)cc1 (stereo not drawn) [compound 821, 1-cyclopropyl-N-{1-[1-(4-methoxyphenyl)ethyl]azetidin-3-yl}-1H-1,2,3-triazole-4-carboxamide]
35 | 1.97 | CC(O)COc1ccc(CN2CC(NC(=O)c3cn(C4CC4)nn3)C2)cc1 (stereo not drawn) [compound 822, 1-cyclopropyl-N-(1-{[4-(2-hydroxypropoxy)phenyl]methyl}azetidin-3-yl)-1H-1,2,3-triazole-4-carboxamide]
36 | 0.882 | O=C(NC1CN(Cc2ccc(O)cc2)C1)c1cn(C2CC2)nn1 [compound 824, 1-cyclopropyl-N-{1-[(4-hydroxyphenyl)methyl]azetidin-3-yl}-1H-1,2,3-triazole-4-carboxamide]
37 | 0.391 | CN1CC(NC(=O)c2cc(C3CC3)cnn2)C1 [compound 825, 5-cyclopropyl-N-(1-methylazetidin-3-yl)pyridazine-3-carboxamide]
38 | 1.84 | COc1ccc(CN2CC(NC(=O)c3cn(C4CC4)nn3)C2)cc1 [compound 826, 1-cyclopropyl-N-{1-[(4-methoxyphenyl)methyl]azetidin-3-yl}-1H-1,2,3-triazole-4-carboxamide]
39 | 1.38 | O=C(NC1CN(Cc2ccc(OCCO)cc2)C1)c1cn(C2CC2)nn1 [compound 827, 1-cyclopropyl-N-(1-{[4-(2-hydroxyethoxy)phenyl]methyl}azetidin-3-yl)-1H-1,2,3-triazole-4-carboxamide]
